Test results reported in patent publication US20260138969A1 (Korea Research Institute of Chemical Technology, priority 2023, published 2026).

Legend:
[1] = tested on: CDAHFD-induced non-alcoholic steatohepatitis mouse model; experiment: CDAHFD-induced non-alcoholic steatohepatitis mouse model: liver fibrosis (Picrosirius red); format: in vivo; details: for Picrosirius red staining area in the liver: Selonsertib 30 mg/kg, Example 3 10 and 30 mg/kg, Example 2 10 and 30 mg/kg PO QD, CDAHFD diet 4 and 8 weeks
Procedure: Creation of CDAHFD-induced NASH model and drug administration were carried out by dividing C57BL/6 male mice at 3 weeks of age into 7 groups as shown in Table 16 below. The control group (G1) was fed standard feed and water. Groups G2 to G7 were fed the CDAHFD (Research Diet Inc, #A06071302) diet for 4 and 8 weeks.
Picrosirius red staining was used for histological visualization of collagen fibers. Histopathology analysis evaluated the efficacy of improving liver fibrosis.
For mice in each group, three sections of the liver fixed with 4% PFA (paraformaldehyde) were prepared with paraffin blocks. Paraffin blocks were sectioned to a thickness of 5 μm (Histocore AUTOCUT R, Leica Microsystems, Germany) and the sections were mounted on silane-coated slides (MUTO, JPN) and stored until staining.
Xylene was used to remove paraffin from the slides, and the slides were moisturized and washed. The slides were stained with a solution of Picrosirius red (ab150681, Abcam, UK) and washed off with a solution of acetic acid. The slides were fitted after dehydration and cleaning using alcohol and xylene. For each section, two images of different areas were taken using a microscope (Axioscan7, ZEISS, Germany). The fibrotic area was measured using image J software compared to the total area. FIGS. 23a and 23b are graphs and images of Picrosirius red stained area ratios in the liver of a CDAHFD-induced mouse model of nonalcoholic steatohepatitis.

SH-SY5Y cells = experiment: Cytoprotective effects in MPP+-induced human neurons (CCK-8); format: cell-based; details: MPP+ 5 mM induced cytotoxicity, cell viability by CCK-8
Procedure: SH-SY5Y cells were purchased from ATCC and cultured at 37° C. and 5% CO2 in RPMI medium containing 10% FBS and 1% penicillin and streptomycin. MPP+ was purchased from Sigma Aldrich and treated with 5 mM to induce cytotoxicity.

[2] = tested on: α-Syn transgenic Parkinson's disease mouse model; experiment: α-Syn transgenic Parkinson's disease mouse model: step error (beam test); format: in vivo; details: at 7 and 9 months; Memantine 10 mg/kg, Example 3 2/10/50 mg/kg, Example 2 2 mg/kg PO QD; vs G2
Procedure: (§1) The test drug was administered once daily (QD) via oral administration (PO) with a solution of 5 ml/kg for 5 months from 4 months to 9 months of age. Motor behavior tests (beam test) and neurological scores (modified Irwin test) were performed at 4 months (before administration), 7 months, and 9 months. After the final behavioral test, tissue samples were taken. Weight was measured on the same day once a week from 4 months of age until the end of the study.
The procedure described by Fleming et al. (J Neurosci, 24:9434-40, 2004) was adopted as the beam test (Challenging Beam Traversal). Exercise capacity was measured with a new beam test that was a modification of the existing beam walking test. The beam is made of Plexiglas and consists of four sections (each 25 cm and a total length of 1 m), each with a different width. The beam is designed to start at 3.5 cm wide and gradually narrow in increments of 0.5 cm×1 cm. A shelf 1 cm wide was placed 1.0 cm below the top surface of the beam.
The mouse was trained to cross the length of the beam, starting from the widest section and ending with the narrowest and most difficult section. The narrow end of the beam is designed to connect directly to the mouse's house cage. The mice were trained for two days before testing, and all training was carried out without a mesh grid. On the first day, two auxiliary exercises were performed, in which the mouse was placed on a beam and the home cage was placed close to the mouse. This induces it to move forward along the beam. […]
The error was counted if the limb (front or hind leg) passed through the grid during forward movement and was visible between the grid and the beam surface. […] Error was measured by scoring each limb slippage individually. For example, a mouse with three limbs slipping off the grid in one step was rated with an error score of 3 points, while a mouse with only one limb slipped off the grid in one step was evaluated with an error score of 1 in that step. […] The number of step errors and the time it took to cross were measured and averaged in all five experiments.

[3] = tested on: α-Syn transgenic Parkinson's disease mouse model; experiment: α-Syn transgenic Parkinson's disease mouse model: TH staining of striatum; format: in vivo; details: 9 months of age; Example 3 2/10/50 mg/kg, Example 2 2 mg/kg PO QD; vs G2
Procedure: as §1
At 9 months of age, the measurement period ended, the mice were anesthetized, and then the experiment was terminated by cardiac puncture according to IACUC guidelines. Mice were perfused transcardially with 0.9% saline for tissue staining, followed by 4% paraformaldehyde until the mice were fixed. The brains were isolated and immobilized by soaking in 4% paraformaldehyde at 4° C. for 24 hours, followed by 30% sucrose added to PBS containing 0.02% sodium azide and stored at 4° C. for 3 days. Brain samples embedded in OCT compounds were sectioned to a thickness of 20 μm using Leica CM1950 (Leica Microsystems, Germany). The sections were stored at 4° C. in a preservation solution until they were stained by antibodies. […]
TH-stained brain tissue was imaged using an immunofluorescence microscope (Olympus, BZ21) in Olympus. The fluorescence intensity of the striatum was analyzed using Image J software.

Row | SMILES | efficacy in improving liver fibrosis (Picrosirius red) ([1]; 30 mg/kg PO QD, after 4 weeks of the CDAHFD diet) | Picrosirius red staining area in the liver [1] | EC50 (SH-SY5Y cells) | number of step errors (beam test) [2] | TH staining intensity of striatum [3]
1 | Cc1cc(F)c(C(=O)Nc2cccc(-n3nnc4c3CCC4)n2)cc1-n1cnc(C2CC2)c1 [Example 2, 5-(4-cyclopropyl-1H-imidazole-1-yl)-N-(6-(5,6-dihydrocyclopenta[d][1,2,3]triazole-1 (4H)-yl)pyridine-2-yl)-2-fluoro-4-methylbenzamide] | most improved efficacy | significantly reduced | 64 nM | significant reduction in the number of step errors compared to Group G2 | significantly higher than that of group G2
2 | Cc1cc(F)c(C(=O)Nc2cccc(-n3nnc4c3CCCC4)n2)cc1-n1cnc(C2CC2)c1 [Example 3, 5-(4-cyclopropyl-1H-imidazole-1-yl)-2-fluoro-4-methyl-N-(6-(4,5,6,7-tetrahydro-1H-benzo[d][1,2,3]triazole-1-yl)pyridine-2-yl)benzamide] | – | significantly reduced | 23 nM | significant reduction in the number of step errors compared to Group G2 | significantly higher than that of group G2
